“Also recorded” adds a separate entry of the source.

Series [1] is described as follows: In vitro activity of PEG-KLK1 conjugates (BAEE degradation, absorbance change). It counts as biochemical. The settings on record: BAEE substrate, versus original unmodified protein. The text has this:
N-benzoyl-L arginine ethyl ester hydrochloride (BAEE, purchased from sigma Inc.) may be degraded by Kallikrein, and the activity of kininogenase may be determined according to the change in the absorbance before and after the enzymatic reaction, see Pharmacopoeia of People's Republic of China, pages 850-851, Section 2, 2010 version for a particular determination method. Samples to be detected were, respectively, SC-PEG5000-KLK1 (conjugate 1), Y-PALD-20K-KLK1 (conjugate 2), Y-PALD-30K-KLK1 (conjugate 3), and Y-PALD-40K-KLK1 (conjugate 4) from Preparation Example 1, and the original unmodified protein.
The recombinant expressed low-molecular weight human kallikrein (hK1K1) from Example 10 was modified with a Y-PALD-30K modifier, and after the modification, a mono-modified product (Y-PALD-30K-hK1K1) was prepared according to the method described in Example 1. […] According to the experimental method in Example 2, the activity of human kallikrein (hK1K1) before and after the modification was determined.
The recombinant human kallikrein expressed in CHO cells prepared in Example 12 was modified with a Y-PALD-30K modifier, and after the modification, a mono-modified product (Y-PALD-30K-rhK1K1) was prepared according to the method described in Example 1. […] According to the experimental method in Example 2, the activity of human kallikrein before and after the modification was determined.

Series [2] in a line: Thermostability: activity after standing in a water bath at 65° C. The format is physicochemical. The settings on record: for thermostability in comparison with the original protein: 65° C. water bath, 0-30 min. As for the experimental part: In order to confirm whether the PEG modification can increase the stability of kallikrein, the activity of the conjugates 1 and 3 and the original protein after standing for a period of time in a water bath at 65° C. was detected respectively in this example. The method specifically included the following steps. The conjugates 1 and 3 and the unmodified kallikrein dissolved in a PBS buffer at a protein concentration of 1 mg/mL were stood in a water bath at 65° C., sampled at 0 min, 2.5 min, 5 min, 7.5 min, 10 min, 20 min, 25 min, and 30 min respectively, and stored in freezer at […] for later use. After sampling, the biological activity was detected by employing the method (i.e., the method described in appendix IX F in Pharmacopoeia of People's Republic of China, Section 3, 2005 version).

For series [3], the system named is cerebral ischemia reperfusion model of middle cerebral artery obstruction (MCAO). The series is described as follows: Cerebral ischemia reperfusion model of middle cerebral artery obstruction (MCAO). The format is in vivo. The settings on record: SD rats, 3 μg/kg once via vena caudalis; for Cerebral infarction area (%) / Score of neurologic deficit symptom: 24 h after reperfusion; for Cerebral infarction area (%): TTC staining; for Score of neurologic deficit symptom: improved Bederson 5-point system. The source says: A cerebral ischemia reperfusion model of middle cerebral artery obstruction (MCAO) was established by thread embolizing the internal carotid artery of SD rats (purchased from Shanghai Sippr bk Laboratory Animal Co. LTD.) A positive control 1 group (urinary kallikrein, Guangdong Tianpu Biochemical Pharmaceutical Co., LTD.), a positive control 2 group (tPA, Shanghai Boehringer Ingelheim Pharmaceuticals Co., LTD), a model control group (PBS), a sham group, a kallikrein group (from Changzhou Qianhong Biochemical Pharmaceutical Co., LTD.), a conjugate 1 group, a conjugate 2 group, a conjugate 3 group, and a conjugate 4 group were arranged respectively. Administration by injection through vena caudalis was performed once at 3 μg/kg (calculated according to the protein amount) immediately after the cerebral ischemia reperfusion. Neurologic deficit symptoms were observed 24 h after the reperfusion, and the cerebral infarction area was determined. In the model group, an equal volume of PBS was injected through vena caudalis into the rat. In the sham group, only blood vessels were separated, no embolizing thread was inserted, and an equal volume of PBS was injected through vena caudalis into the rats. Neurologic deficit symptoms were evaluated employing an improved Bederson 5-point system method. Neurologic deficit symptoms of the rats after brain trauma were evaluated by a single-blind method, i.e., the animals were marked according to groups by designers of the experiment, and scores of the neurologic deficit symptoms were given by experimenters blind to the grouping situation. The cerebral infarction area was calculated employing the following method. Cerebrums of the SD rats were stained with TTC (2,3,5-triphenyltetrazolium chloride) and then the photographs were subjected to statistics using an image analysis software, and the percentage of cerebral infarction area was calculated according to the following formula: % cerebral infarction area=100×(total ischemic area/total area on the right side)

Series [4] concerns db/db mice as animal models for diabetic nephropathy. Put plainly: Diabetic nephropathy model in db/db mice. The format is in vivo. The settings on record: for 24-h urea nitrogen after administration, compared with the model group / 24-h urine creatinine after administration, compared with the model group / 24-h urine protein after administration, compared with the model group / 24-h urine volume after administration, compared with the model group: 2 μg/kg via vena caudalis, 2 months, original protein once a week, conjugate 3 once every 2 weeks. As for the experimental part: db/db mice (purchased from Shanghai Slaccas Experimental Animal Co., LTD., grade SPF, 8-week aged, male, with a conformity certification No. of 2007000552656) were employed as animal models for diabetic nephropathy. A model group, a kallikrein (purchased from Changzhou Qianhong Biochemical Pharmaceutical Co., LTD.) original protein group and a conjugate 3 group were provided respectively. The administered dose was 2 μg/kg (calculated according to the protein amount), through vena caudalis, where the model group and the original protein group were dosed once a week, and the conjugate 3 group was dosed once every 2 weeks, for 2 continuous months before detection of urine volume, urine protein, urea nitrogen and urine creatinine. (Urine protein detection kits, urine creatinine detection kits, and urea nitrogen detection kits were all purchased from Nanjing Jiaticheng Bioengineering Co., LTD.)

Series [5] is described as follows: Pharmacokinetics by 125I isotope labelling tracer method. The format is in vivo. The conditions noted are these: rats, 1.5 U/kg via vena caudalis; for T½β: 2-compartment model. As for the experimental part: The in vivo blood drug concentrations of kallikrein before and after the PEG modification were studied employing a ^125I isotope labelling tracer method in this example. In order to reduce the absorption of the labelled drug by the thyroid gland of rats, 1 ml of a 1% KI (Sinopharm Group) solution was intraperitoneally injected about 8 hours before the experiment, to saturate the thyroid gland of the rats. The rats were randomly divided into 3 groups, i.e., a conjugate 3 group, a kallikrein group, and a urinary kallikrein group, 8 in each group, half male and half female (purchased from Experimental Animal Center of Zhejiang Province).
A particular operation method is as follows:
1. Hydroxy on the amino acid residue phenyl ring in a protein molecule is substituted with radioiodine, to obtain the above protein with ^125I having a radioactive tracing effect.
2. Numbering is performed on the rats using picric acid according to the numbering rule, and weighing is performed. After fixing with a rat fixer, administration is performed by injection through vena caudalis (1.5 U/kg). The rat is let go immediately after the dosage, and allowed to move around, drink water, and eat food freely.
3. 0.2 mL of blood is taken from eye sockets 1 min, 3 min, 10 min, 20 min, 40 min, 60 min, 2 h, 4 h, 8 h, 12 h, 24 h, 48 h, 72 h, 96 h, and 120 h respectively after the dosage, and EDTA is added therein for anticoagulation.
4. The rat plasma is subjected to centrifugal separation at 5000 rpm for 3 min, and determined for plasma radioactivity using a gamma counter (Anke Zhongjia, GC-911), for 1 min.
5. Plasma is recovered after radioactivity determination, and undegraded proteinogenous drugs are separated by HPLC (Shimadzu LC-20AT).

Series [6] deals with anti-kallikrein antibody level in serum. Further details: species or system mice. The conditions noted are these: mouse, in vivo, 1 mg/kg. As for the experimental part: Relative immunogenicity of different PEG-KLK1 conjugates to mice was determined in this example, and compared with the original protein. The experiment was divided into a conjugate 2 group, a conjugate 3 group, a urinary kallikrein group and an original protein group. 1 mg/kg (calculated according to the protein amount) of the above protein was injected through vena caudalis into the mice at a frequency of twice a week, for 4 continuous weeks. Blood was taken from eye sockets 1 week after administration. The anti-kallikrein antibody level in serum was determined by […].

As for Y-PALD-30K-hK1K1, the “activity retained, of the activity of the original protein” value (“activity retained” for short) in series [1] was determined as 85%.

Regarding “SC-PEG5000-KLK1 [Conjugate 1, reference compound]”, in series [1], the “activity retained” value was determined as 81%. For the same substance, the “thermostability in comparison with the original protein” value in series [2] is “unobvious”. Also, in series [3], the “amelioration of cerebral infarction status of the model animals (in words)” value (from here on “amelioration”) was “only partially ameliorated; also recorded: slightly ameliorate”, the “Cerebral infarction area (%)” value came out at 27.67 ± 4.34% and the “Score of neurologic deficit symptom” value came to 2.45 ± 0.27.

Consider Kallikrein, for which, in series [2] (1 mg/mL in PBS, 65° C., 10 min), the “activity after standing for 10 min at 65° C.” value is “substantially lost”. In series [3], the “amelioration” value was “no apparent amelioration”, the “Cerebral infarction area (%)” value is 26.52 ± 3.67% and the “Score of neurologic deficit symptom” value amounted to 2.41 ± 0.19. In series [4], the “24-h urea nitrogen after administration, compared with the model group” value was “significantly reduced”; the “24-h urine creatinine after administration, compared with the model group” value is given as “significantly reduced”; the “24-h urine protein after administration, compared with the model group” value is given as “significantly reduced”; the “24-h urine volume after administration, compared with the model group” value is on record as “significantly reduced”. Also, in series [5], the “AUC” value amounted to 18.59 ng·h/mL, the “CL” value was determined as 2.17 mL/min/kg, the “V” value came to 3.53 L/kg and the “T½β” value was 18.81 h.

As to Y-PALD-20K-KLK1 [Conjugate 2], in series [1], the “activity retained” value was found to be 83%. Besides, in series [3], the “amelioration” value is reported as “apparent protective effects; also recorded: better therapeutic effect”, the “Cerebral infarction area (%)” value came out at 21.34 ± 1.70 % and the “Score of neurologic deficit symptom” value turned out to be 2.27 ± 0.24. In addition, in series [6], the “antibody titers on mice compared with kallikrein from porcine pancreas and urinary kallikrein” value was “much lower”.

For the substance Y-PALD-30K-KLK1 [Conjugate 3], the “activity retained” value in series [1] was 90%. In addition, the “activity after standing for 20 min at 65° C.” value in series [2] (1 mg/mL in PBS, 65° C., 20 min) was “still has a certain activity”. Moreover, the “thermostability in comparison with the original protein” value in series [2] was “significantly increased”. Moreover, in series [3], the “amelioration” value is listed as “apparent protective effects; also recorded: better therapeutic effect”, the “Cerebral infarction area (%)” value was 17.16 ± 4.07 % and the “Score of neurologic deficit symptom” value turned out to be 2.10 ± 0.23. Further, in series [4], the “24-h urea nitrogen after administration, compared with the model group” value was “significantly reduced”; the “24-h urine creatinine after administration, compared with the model group” value was “significantly reduced”; the “24-h urine protein after administration, compared with the model group” value is “significantly reduced”; the “24-h urine volume after administration, compared with the model group” value is recorded as “significantly reduced”. For the same substance, in series [4] (conjugate 3 once every 2 weeks versus original protein once a week), the “efficacy compared with the original protein group” value is reported as “apparently superior”. In addition, in series [6], the “antibody titers on mice compared with kallikrein from porcine pancreas and urinary kallikrein” value is given as “much lower”; the “relative immunogenicity to mice compared with conjugate 2” value is given as “slightly lower”. Further, in series [5], the “AUC” value amounted to 113.62 ng·h/mL, the “CL” value was determined as 0.33 mL/min/kg, the “V” value amounted to 0.64 L/kg and the “T½β” value turned out to be 20.03 h.

“Positive control 1: urinary kallikrein sourced from human urine, Guangdong Tianpu Biochemical Pharmaceutical [reference compound]”: in series [3], the “Cerebral infarction area (%)” value stood at 24.49 ± 3.96 % and the “Score of neurologic deficit symptom” value was 2.47 ± 0.21. Besides, in series [5], the “AUC” value came out at 11.68 ng·h/mL, the “CL” value amounted to 3.5 mL/min/kg, the “V” value stood at 5.16 L/kg and the “T½β” value turned out to be 17.49 h.

With Y-PALD-30K-rhK1K1, the “activity retained” value in series [1] was found to be 88%.

With Y-PALD-40K-KLK1 [Conjugate 4], the “activity retained” value in series [1] was 86%. Moreover, in series [3], the “amelioration” value was “essentially did not reduce; also recorded: no apparent amelioration”, the “Cerebral infarction area (%)” value is listed as 31.27 ± 5.08% and the “Score of neurologic deficit symptom” value is 2.65 ± 0.34.

What is called AUC is concentration integrated over time.

The values are drawn from patent US10052368B2, “Pegylated tissue kallikrein, and preparation method therefor and uses thereof” (ZONHON BIOPHARMA INSTITUTE INC., priority 2013, dated 2018).
